Measured values taken from US12581252B2, “Substituted pyrrolo[3,4-b]pyridines as PI3K-α inhibitors” (Relay Therapeutics, Inc., priority 2020, dated 2026).

Molecular target: H1047R PIK3CA enzyme (Homo sapiens, UniProt P42336, H1047R)
Experiment: ADP-Glo Biochemical PIK3CA Kinase Assay

Chain of H1047R PIK3CA enzyme (P42336 whole entry H1047R): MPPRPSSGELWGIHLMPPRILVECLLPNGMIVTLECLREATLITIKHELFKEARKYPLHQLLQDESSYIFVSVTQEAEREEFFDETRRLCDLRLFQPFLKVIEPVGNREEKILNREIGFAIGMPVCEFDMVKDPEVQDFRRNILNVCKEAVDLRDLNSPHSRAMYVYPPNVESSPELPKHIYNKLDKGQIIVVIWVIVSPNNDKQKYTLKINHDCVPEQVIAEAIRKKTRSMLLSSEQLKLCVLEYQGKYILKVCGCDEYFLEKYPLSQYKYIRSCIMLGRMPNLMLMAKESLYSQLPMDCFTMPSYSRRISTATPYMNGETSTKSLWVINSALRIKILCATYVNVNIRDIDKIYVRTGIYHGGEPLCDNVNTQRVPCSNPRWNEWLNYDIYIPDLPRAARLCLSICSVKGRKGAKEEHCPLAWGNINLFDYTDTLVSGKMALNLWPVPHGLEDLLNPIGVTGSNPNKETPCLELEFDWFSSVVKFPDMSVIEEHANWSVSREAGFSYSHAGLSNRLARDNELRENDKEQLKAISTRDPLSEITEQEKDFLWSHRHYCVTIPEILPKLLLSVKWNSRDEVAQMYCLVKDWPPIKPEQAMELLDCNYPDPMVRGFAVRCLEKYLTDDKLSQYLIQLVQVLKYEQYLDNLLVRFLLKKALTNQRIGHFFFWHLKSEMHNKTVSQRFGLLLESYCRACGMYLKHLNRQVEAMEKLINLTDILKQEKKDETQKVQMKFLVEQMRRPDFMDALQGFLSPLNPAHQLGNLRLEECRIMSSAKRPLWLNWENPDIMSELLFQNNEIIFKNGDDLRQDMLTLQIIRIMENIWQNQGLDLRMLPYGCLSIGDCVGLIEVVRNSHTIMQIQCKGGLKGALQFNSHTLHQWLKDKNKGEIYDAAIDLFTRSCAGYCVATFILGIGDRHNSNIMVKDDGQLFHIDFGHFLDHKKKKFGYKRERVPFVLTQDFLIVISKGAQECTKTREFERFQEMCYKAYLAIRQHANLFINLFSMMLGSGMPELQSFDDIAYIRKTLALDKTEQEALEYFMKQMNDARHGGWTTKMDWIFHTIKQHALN
Chain of H1047R PIK3CA enzyme (P27986 whole entry partner): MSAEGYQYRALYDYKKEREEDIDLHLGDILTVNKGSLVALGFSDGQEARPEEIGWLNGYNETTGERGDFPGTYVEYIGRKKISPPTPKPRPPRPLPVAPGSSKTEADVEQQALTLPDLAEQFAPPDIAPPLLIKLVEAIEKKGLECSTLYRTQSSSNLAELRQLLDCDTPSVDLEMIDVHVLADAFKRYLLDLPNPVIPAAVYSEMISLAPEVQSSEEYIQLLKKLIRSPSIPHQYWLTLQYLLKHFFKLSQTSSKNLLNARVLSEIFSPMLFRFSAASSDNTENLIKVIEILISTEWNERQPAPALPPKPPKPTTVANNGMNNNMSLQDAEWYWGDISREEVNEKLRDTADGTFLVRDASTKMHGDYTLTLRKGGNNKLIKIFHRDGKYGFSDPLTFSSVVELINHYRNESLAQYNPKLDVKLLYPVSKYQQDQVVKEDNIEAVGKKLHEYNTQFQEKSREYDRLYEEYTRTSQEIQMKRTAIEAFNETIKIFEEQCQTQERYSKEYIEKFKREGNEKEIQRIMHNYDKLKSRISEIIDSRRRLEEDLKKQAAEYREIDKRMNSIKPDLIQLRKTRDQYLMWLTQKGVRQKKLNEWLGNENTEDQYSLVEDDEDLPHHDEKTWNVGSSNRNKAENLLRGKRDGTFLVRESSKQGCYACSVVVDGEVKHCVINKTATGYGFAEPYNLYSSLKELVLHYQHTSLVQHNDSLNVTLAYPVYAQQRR

| SMILES | IC50 [µM] |
| --- | --- |
| CC(=O)N1CCCCC1C1NC(=O)c2cccc(NC(=O)c3cc(F)cc(C(F)(F)F)c3)c21 (stereo not drawn) [Compound I-1674] | 10 to 100 |
| O=C(Nc1cccc2c1C(C1CCCCN1)NC2=O)c1cc(F)cc(C(F)(F)F)c1 (stereo not drawn) [Compound I-1675] | 1 to 10 |
| O=C(Nc1cc(-c2ccc3nnc(Cl)n3c2)cc2c1[C@@H](c1cc(F)ccc1Cl)NC2=O)c1cc(F)cc(C(F)(F)F)c1 [Compound I-1676] | 0.1 to 0.5 |
| O=C(Nc1cc(-c2ccn3ncnc3n2)cc2c1C(c1cc(F)ccc1Cl)NC2=O)c1cc(F)cc(C(F)(F)F)c1 (stereo not drawn) [Compound I-1677] | ≤ 0.1 |
| O=C(Nc1cccc2c1C(CN1CCCCC1)NC2=O)c1cc(F)cc(C(F)(F)F)c1 (stereo not drawn) [Compound I-1678] | 10 to 100 |
| O=C1NC(c2cc(F)ccc2Cl)c2c(Nc3cc4ccccn4n3)cc(-c3ccc4ncnn4c3)cc21 (stereo not drawn) [Compound I-1679] | 10 to 100 |
| O=C1NC(c2cc(F)ccc2Cl)c2c(NC(=O)C3CCCCC3)cccc21 (stereo not drawn) [Compound I-1680] | 1 to 10 |
| O=C(Nc1cccc2c1C(c1cc(F)ccc1Cl)NC2=O)c1ccccc1 (stereo not drawn) [Compound I-1681] | 10 to 100 |
| O=C1NC(c2cc(F)ccc2Cl)c2c(Nc3cccc4ccccc34)cc(Br)cc21 (stereo not drawn) [Compound I-1682] | 1 to 10 |
| O=C1NC(c2cc(F)ccc2Cl)c2c(Nc3cc4ccccc4cn3)cc(Br)cc21 (stereo not drawn) [Compound I-1683] | 10 to 100 |
| O=C1N[C@H](c2cc(F)ccc2Cl)c2c(NC(=O)c3csc4ccccc34)cc(-c3ccc4ncnn4c3)cc21 [Compound I-1685] | 1 to 10 |
| O=C1NC(c2cc(F)ccc2Cl)c2c(NC(=O)c3cc(F)cc4c(Cl)n[nH]c34)cc(Br)cc21 (stereo not drawn) [Compound I-1686] | 1 to 10 |
| O=C(COc1ccccc1)Nc1cc(-c2ccc3ncnn3c2)cc2c1C(c1cc(F)ccc1Cl)NC2=O (stereo not drawn) [Compound I-1688] | 10 to 100 |
| O=C1NC(c2cc(F)ccc2Cl)c2c(NC(=O)C3CC(C(F)(F)F)CCN3)cc(Br)cc21 (stereo not drawn) [Compound I-1689] | 10 to 100 |
| O=C1NC(c2cc(F)ccc2Cl)c2c(NC(=O)C3CCC(O)CC3)cc(-c3ccc4ncnn4c3)cc21 (stereo not drawn) [Compound I-1690] | 10 to 100 |
| O=C1NC(c2cc(F)ccc2Cl)c2c(Nc3coc4ccccc34)cc(Br)cc21 (stereo not drawn) [Compound I-1691] | 1 to 10 |
| O=C(Nc1cc(-c2ccc3nc(Cl)nn3c2)cc2c1[C@@H](c1cc(F)ccc1Cl)NC2=O)c1cc(F)cc(C(F)(F)F)c1 [Compound I-1692] | 1 to 10 |
| O=C(Nc1cc(-c2ccc3nc(Cl)nn3c2)cc2c1[C@H](c1cc(F)ccc1Cl)NC2=O)c1cc(F)cc(C(F)(F)F)c1 [Compound I-1693] | ≤ 0.1 |
| O=C(Nc1cc(-c2ccc3ncc(Cl)n3c2)cc2c1C(c1cc(F)ccc1Cl)NC2=O)c1cc(F)cc(C(F)(F)F)c1 (stereo not drawn) [Compound I-1694] | ≤ 0.1 |
| O=C(Nc1cc(-c2ccn3nc(Cl)nc3c2)cc2c1[C@@H](c1cc(F)ccc1Cl)NC2=O)c1cc(F)cc(C(F)(F)F)c1 [Compound I-1695] | 1 to 10 |
| O=C(Nc1cc(-c2ccc3nc(Cl)cn3c2)cc2c1C(c1cc(F)ccc1Cl)NC2=O)c1cc(F)cc(C(F)(F)F)c1 (stereo not drawn) [Compound I-1696] | ≤ 0.1 |
| O=C(Nc1cc(-c2ccn3nc(Cl)nc3c2)cc2c1[C@H](c1cc(F)ccc1Cl)NC2=O)c1cc(F)cc(C(F)(F)F)c1 [Compound I-1697] | ≤ 0.1 |
| O=C(Nc1cc(-c2ccn3ncnc3c2F)cc2c1C(c1cc(F)ccc1Cl)NC2=O)c1cc(F)cc(C(F)(F)F)c1 (stereo not drawn) [Compound I-1698] | ≤ 0.1 |
| Cn1ncc(-c2cc(NC(=O)c3cc(F)cc(C(F)(F)F)c3)c3c(c2)C(=O)NC3c2cc(F)ccc2Cl)c1C#N (stereo not drawn) [Compound I-1699] | ≤ 0.1 |
| COc1cc2ncnn2cc1-c1cc(NC(=O)c2cc(F)cc(C(F)(F)F)c2)c2c(c1)C(=O)NC2c1cc(F)ccc1Cl (stereo not drawn) [Compound I-1700] | ≤ 0.1 |
| O=C(Nc1cc(-c2cc(F)c3ncnn3c2)cc2c1[C@@H](c1cc(F)ccc1Cl)NC2=O)c1cc(F)cc(C(F)(F)F)c1 [Compound I-1703] | 10 to 100 |
| O=C(Nc1cc(-c2cc(F)c3ncnn3c2)cc2c1[C@H](c1cc(F)ccc1Cl)NC2=O)c1cc(F)cc(C(F)(F)F)c1 [Compound I-1704] | ≤ 0.1 |
